“Also recorded” adds a separate entry of the source.
Experiments:
D54 cells = assay: Phospho-γH2AX foci formation after radiation; format: cell-based
Protocol: (§1) To determine histone H2AX phosphorylation (γH2AX), cells were cultured on glass cover slips and pre-treated with either vehicle or NGI-1 for 48 hours followed by radiation treatment. Samples were fixed with 4% neutral-buffered formaldehyde, washed (0.1% triton in PBS for 30 minutes) and incubated for 1 hour with protein-blocking solution (PBS containing 10% normal goat-horse serum; Sigma-Aldrich, Saint Louis, Mich., US). Next, the slides were incubated with primary anti-phospho-histone γH2AX S139 (1:500, Millipore-Upstate, Billerica, Mass., US) followed by incubation with secondary antibody Alexa Fluor 555-conjugated goat anti-mouse IgG (1:750, Molecular probes/Invitrogen, Carlsbad, Calif., US), for 1 hour at room temperature. Nuclei were stained using DAPI containing vectashield mounting solution (Vector Labs). Confocal cellular images were captured with an inverted Zeiss LSM 510 Pascal laser confocal microscope (C. Zeiss, Jenna, Germany), using a 63/1.4 plan-apochromat objective. Five randomly selected fields s per slide were analyzed. Cells were counted using the ImageJ program, public domain Java image processing software.

T98G cells = assay: Phospho-γH2AX foci formation after radiation; format: cell-based; settings: 2 hours after 4 Gy, 10 μM NGI-1
Protocol: as §1

U251 cells = assay: Phospho-γH2AX foci formation after radiation; format: cell-based; settings: 2 hours after 4 Gy, 10 μM NGI-1
Protocol: as §1

PC9-ERLucT cells = assay: ER-LucT glycosylation reporter luciferase assay in vitro; format: cell-based; settings: after 24 h, equivalent concentrations of NGI-1 dissolved in DMSO or via NP
From the text: To test the hypothesis that NGI-1 could enhance TKI therapy in EGFR mutant and TKI resistant NSCLC, a NGI-1 nanoparticle (NGI-NP) formulation was developed by nanoprecipitation of a NGI-1 PEI complex. All nanoparticle preparations were confirmed by DLS and the average particle size was 120±10 nm. To assess the activity of the NGI-1 NPs a PC9 cell line with stable expression of the ER-LucT glycosylation reporter (Contessa at al., Clin Cancer Res., 16(12):3205-14 (2010)), a luciferase engineered to be expressed in the endoplasmic reticulum with N-linked glycosylation sites, was established. Under normal cell conditions glycosylation of the luciferase blocks activity and luminescence. However, under conditions of decreased glycosylation luciferase activity is restored with a measurable increase in luciferase activity. Equivalent concentrations of NGI-1, either dissolved in DMSO or via NP, activated luminescence˜6 fold after 24 h in these PC9-ERLucT cells in vitro (FIG. 13A).

Solubility = format: physicochemical
H3255 = settings: Lopez-Sambrooks et al., Nat Chem Biol. 2016; cited from earlier work
FGFR1 dependent H1580 = settings: Lopez-Sambrooks et al., Nat Chem Biol. 2016; cited from earlier work

Cc1cnc(NC(=O)c2cc(S(=O)(=O)N(C)C)ccc2N2CCCC2)s1 [NGI-1, 5-(dimethylsulfamoyl)-N-(5-methyl-1,3-thiazol-2-yl)-2-(pyrrolidin-1-yl)benzamide]
increase of phospho-γH2AX foci formation, time course (D54 cells; 4 Gy + 10 μM NGI-1, radiation alone 6.4-fold): 8.6 fold
increase of phospho-γH2AX foci formation compared to radiation alone (factor) (D54 cells; 2 hours after 4 Gy, 10 μM NGI-1): 1.3
enhancement of phospho-γH2AX foci formation (T98G cells): no enhancement
enhancement of phospho-γH2AX foci formation (U251 cells): no enhancement
activation of luminescence (luciferase activity) (PC9-ERLucT cells): ~6 fold
solubility (Solubility): low solubility; also recorded: solubility remains a significant challenge
H3255 proliferation (H3255): significantly inhibits
sensitivity to OST inhibition with NGI-1 (FGFR1 dependent H1580): sensitive

Reference: patent publication US10765638B2, “Particle formulation with polycation complex” (Yale University, priority 2017, dated 2020)
